# Source: ChEMBL document CHEMBL1201862, “PubChem BioAssay data set” (2004)
#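 Following 48 hours of exposure in 96-well plates, responses at five concentrations were used to interpolate endpoints linearly. The concentration for 50% growth inhibition is given as GI50.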 The source made the active and inactive calls. No stated cut-off is given here; in the data, active = GI50 up to about 1.1 µM and inactive = higher.
# How the values were obtained:
# Test in all cases: inhibition of tumour cell growth, NCI panel, 48 h
# IGROV-1 = test system: IGROV-1
# HCC 2998 = test system: HCC 2998
# SW-620 = test system: SW-620
# U-251 = test system: U-251
# CCRF-CEM = test system: CCRF-CEM
# OVCAR-3 = test system: OVCAR-3
# SK-MEL-5 = test system: SK-MEL-5
# A498 = test system: A498
# SNB-75 = test system: SNB-75
# SK-MEL-28 = test system: SK-MEL-28
# NCI-H23 = test system: NCI-H23
# HOP-92 = test system: HOP-92
# NCI-H226 = test system: NCI-H226
# SK-MEL-2 = test system: SK-MEL-2
# SK-OV-3 = test system: SK-OV-3
# UACC-257 = test system: UACC-257
# HCT-15 = test system: HCT-15
# LOX IMVI = test system: LOX IMVI
# SF-539 = test system: SF-539
# RXF 393 = test system: RXF 393
SMILES,GI50 (IGROV-1),GI50 (HCC 2998),GI50 (SW-620),GI50 (U-251),GI50 (CCRF-CEM),GI50 (OVCAR-3),GI50 (SK-MEL-5),GI50 (A498),GI50 (SNB-75),GI50 (SK-MEL-28),GI50 (NCI-H23),GI50 (HOP-92),GI50 (NCI-H226),GI50 (SK-MEL-2),GI50 (SK-OV-3),GI50 (UACC-257),GI50 (HCT-15),GI50 (LOX IMVI),GI50 (SF-539),GI50 (RXF 393)
Nc1ccccc1S(=O)(=O)c1ccccc1,> 100 µM (inactive),> 100 µM (inactive),> 100 µM (inactive),> 100 µM (inactive),> 100 µM (inactive),> 100 µM (inactive),> 100 µM (inactive),> 100 µM (inactive),41.1 µM (inactive),> 100 µM (inactive),> 100 µM (inactive),> 100 µM (inactive),51.2 µM (inactive),> 100 µM (inactive),> 100 µM (inactive),> 100 µM (inactive),> 100 µM,> 100 µM (inactive),> 100 µM (inactive),> 100 µM (inactive)
CC(C)CC(N)C(=O)NC(CNC(CCC(N)=O)C(=O)NC(CC(C)C)C(=O)NC(CC(C)C)C(=O)O)Cc1ccc2ccccc2c1 (stereo not given),> 10 µM (inactive),> 10 µM (inactive),> 10 µM (inactive),> 10 µM (inactive),> 10 µM (inactive),> 10 µM (inactive),> 10 µM (inactive),> 10 µM (inactive),> 10 µM (inactive),> 10 µM (inactive),> 10 µM (inactive),> 10 µM (inactive),> 10 µM (inactive),> 10 µM (inactive),> 10 µM (inactive),> 10 µM (inactive),> 10 µM,> 10 µM (inactive),> 10 µM (inactive),> 10 µM (inactive)
